# Measurements: ChEMBL document CHEMBL1201862, “PubChem BioAssay data set” (2004)
# Active and inactive are the calls of the source.
# Key:
# [1] = molecular target: Ion channel NompC (Danio rerio, UniProt Q7T1G6); test: Fluorescence counterscreen assay for TRPML3 agonists: dose response cell-based high-throughput screening assay to identify agonists of the transient receptor potential channel N1 (TRPN1). [Related pubchem assays: 1526, 1424, 1448 ]; type: functional
# [2] = molecular target: T1, Mucolipin-3 (Homo sapiens, UniProt Q8TDD5); test: Dose response cell-based high-throughput screening assay for agonists of the transient receptor potential channel ML3 (TRPML3). [Related pubchem assays: 1526, 1424, 1448 ]; type: functional
# T1 sequence (Q8TDD5 whole entry): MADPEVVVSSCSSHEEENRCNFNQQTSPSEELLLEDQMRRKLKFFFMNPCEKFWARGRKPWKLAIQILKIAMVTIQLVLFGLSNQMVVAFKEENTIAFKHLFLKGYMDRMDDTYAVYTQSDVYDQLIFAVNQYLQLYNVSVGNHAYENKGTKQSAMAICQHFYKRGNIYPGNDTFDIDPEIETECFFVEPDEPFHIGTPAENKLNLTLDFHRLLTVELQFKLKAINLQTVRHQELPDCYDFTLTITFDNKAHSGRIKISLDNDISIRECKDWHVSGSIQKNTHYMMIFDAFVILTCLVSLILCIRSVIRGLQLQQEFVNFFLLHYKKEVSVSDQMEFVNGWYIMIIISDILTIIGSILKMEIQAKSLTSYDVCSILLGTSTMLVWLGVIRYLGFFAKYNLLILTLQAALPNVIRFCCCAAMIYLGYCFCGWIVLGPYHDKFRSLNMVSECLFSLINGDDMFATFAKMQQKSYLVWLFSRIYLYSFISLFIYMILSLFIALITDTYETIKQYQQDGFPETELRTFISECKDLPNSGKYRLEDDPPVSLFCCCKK
# [3] = molecular target: T2, Estrogen receptor (Homo sapiens, UniProt P03372); test: potentiators of ERα–SRC-1 coactivator binding, dose response, biochemical, TR-FRET, ERα LBD (AID 737)
# T2 sequence (P03372 whole entry): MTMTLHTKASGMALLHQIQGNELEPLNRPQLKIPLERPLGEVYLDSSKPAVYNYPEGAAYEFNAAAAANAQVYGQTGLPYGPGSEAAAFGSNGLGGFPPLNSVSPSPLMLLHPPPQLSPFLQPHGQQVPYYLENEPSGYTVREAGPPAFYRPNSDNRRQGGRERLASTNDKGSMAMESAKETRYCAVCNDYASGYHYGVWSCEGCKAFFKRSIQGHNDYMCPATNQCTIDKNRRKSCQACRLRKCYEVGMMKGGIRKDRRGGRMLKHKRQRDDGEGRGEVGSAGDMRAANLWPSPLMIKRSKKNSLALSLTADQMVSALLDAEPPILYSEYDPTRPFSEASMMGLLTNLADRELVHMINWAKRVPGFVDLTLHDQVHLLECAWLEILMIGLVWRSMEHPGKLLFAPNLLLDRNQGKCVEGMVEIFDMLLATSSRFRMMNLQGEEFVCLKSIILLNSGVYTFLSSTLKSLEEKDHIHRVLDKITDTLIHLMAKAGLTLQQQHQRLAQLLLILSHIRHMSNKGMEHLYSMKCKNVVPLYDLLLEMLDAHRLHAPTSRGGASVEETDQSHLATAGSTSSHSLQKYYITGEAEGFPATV
# [4] = molecular target: T3, NADPH oxidase 1 (Homo sapiens, UniProt Q9Y5S8); type: functional, cell-based;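 note: Cell-based assay with luminescence read-out, IC50 derived from inhibitor dose-response curves; intracellular ROS from endogenous NOX1 in intact HT29 colon cancer cells; potency of inhibitors that lower the ROS luminescence signal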
# T3 sequence (Q9Y5S8 whole entry): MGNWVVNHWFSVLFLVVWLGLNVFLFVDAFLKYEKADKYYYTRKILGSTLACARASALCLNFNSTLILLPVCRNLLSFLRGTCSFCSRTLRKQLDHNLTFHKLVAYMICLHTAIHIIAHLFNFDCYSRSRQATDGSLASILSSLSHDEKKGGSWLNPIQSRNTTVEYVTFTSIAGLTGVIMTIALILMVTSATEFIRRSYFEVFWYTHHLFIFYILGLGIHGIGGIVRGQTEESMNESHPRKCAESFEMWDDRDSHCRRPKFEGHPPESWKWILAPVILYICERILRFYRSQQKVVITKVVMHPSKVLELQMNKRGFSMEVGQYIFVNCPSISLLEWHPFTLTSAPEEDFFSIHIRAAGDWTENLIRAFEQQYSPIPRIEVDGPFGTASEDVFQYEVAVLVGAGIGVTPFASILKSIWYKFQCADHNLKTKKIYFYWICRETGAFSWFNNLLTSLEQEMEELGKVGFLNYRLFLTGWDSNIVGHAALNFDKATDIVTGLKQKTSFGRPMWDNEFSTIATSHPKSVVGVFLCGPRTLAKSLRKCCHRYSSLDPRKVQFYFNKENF
# [5] = molecular target: E3 ubiquitin-protein ligase Mdm2 (Homo sapiens, UniProt Q00987); test: enhancers of MDM2-luciferase reporter signal, concentration-effect titration, project on inhibitors of MDM2 ubiquitin ligase, cellular assay, luminescent readout, 384-well plate format (AID 1394); type: functional;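 note: MDM2 E3 inhibitors raise luminescence so EC50 is for signal enhancement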
# Chain of E3 ubiquitin-protein ligase Mdm2 (Q00987 whole entry): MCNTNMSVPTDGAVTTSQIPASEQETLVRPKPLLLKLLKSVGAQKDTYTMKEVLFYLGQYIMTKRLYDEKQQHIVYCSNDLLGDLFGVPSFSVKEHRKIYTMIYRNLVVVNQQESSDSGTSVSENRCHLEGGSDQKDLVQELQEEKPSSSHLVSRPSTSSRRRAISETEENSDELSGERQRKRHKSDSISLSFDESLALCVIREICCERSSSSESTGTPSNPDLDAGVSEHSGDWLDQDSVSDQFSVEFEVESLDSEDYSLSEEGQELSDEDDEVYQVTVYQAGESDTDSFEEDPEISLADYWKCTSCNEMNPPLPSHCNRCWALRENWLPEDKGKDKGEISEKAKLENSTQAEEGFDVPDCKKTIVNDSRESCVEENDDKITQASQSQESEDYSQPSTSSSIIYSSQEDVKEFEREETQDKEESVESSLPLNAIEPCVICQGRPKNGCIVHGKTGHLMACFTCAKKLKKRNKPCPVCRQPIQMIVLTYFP
# [6] = molecular target: Kallikrein-7 (Homo sapiens, UniProt P49862); test: Fluorescence Intensity-based biochemical primary high throughput dose response assay to identify activators of kallikrein-7 (K7) zymogen.
# Chain of Kallikrein-7 (P49862 whole entry): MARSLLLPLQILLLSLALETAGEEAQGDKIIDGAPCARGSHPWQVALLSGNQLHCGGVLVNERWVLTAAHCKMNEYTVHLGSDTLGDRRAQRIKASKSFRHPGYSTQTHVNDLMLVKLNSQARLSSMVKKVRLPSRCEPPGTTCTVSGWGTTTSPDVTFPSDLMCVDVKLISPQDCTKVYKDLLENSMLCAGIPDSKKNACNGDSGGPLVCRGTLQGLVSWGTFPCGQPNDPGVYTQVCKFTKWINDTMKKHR
# [7] = Luminescent dose response cell-based high throughput screening assay for inhibitors of the Janus kinase 2 mutant JAK2V617F. [Related pubchem assays: 1446 (Primary screen.), 1521 (Confirmation assay.), 1486 (Counter screen.)]; type: functional
# [8] = enhancers of respiration in Yfh1-depleted yeast, dose response, Friedreich's ataxia, plus single-dose screen (AID 1465); type: functional;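 note: yeast depleted of Yfh1p frataxin homolog grown on glycerol needing respiration; WST-1 tetrazolium dye reduction as measure of cellular dehydrogenase metabolic activity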
# [9] = M. tuberculosis growth inhibition, HTS (AID 449762); type: functional
# [10] = molecular target: T4, Zinc finger protein mex-5 (Caenorhabditis elegans, UniProt Q9XUB2); test: MEX-5/TCR-2 RNA interaction inhibitors, dose response, biochemical, C. elegans, fluorescence polarization (AID 1960)
# T4 sequence (Q9XUB2 whole entry): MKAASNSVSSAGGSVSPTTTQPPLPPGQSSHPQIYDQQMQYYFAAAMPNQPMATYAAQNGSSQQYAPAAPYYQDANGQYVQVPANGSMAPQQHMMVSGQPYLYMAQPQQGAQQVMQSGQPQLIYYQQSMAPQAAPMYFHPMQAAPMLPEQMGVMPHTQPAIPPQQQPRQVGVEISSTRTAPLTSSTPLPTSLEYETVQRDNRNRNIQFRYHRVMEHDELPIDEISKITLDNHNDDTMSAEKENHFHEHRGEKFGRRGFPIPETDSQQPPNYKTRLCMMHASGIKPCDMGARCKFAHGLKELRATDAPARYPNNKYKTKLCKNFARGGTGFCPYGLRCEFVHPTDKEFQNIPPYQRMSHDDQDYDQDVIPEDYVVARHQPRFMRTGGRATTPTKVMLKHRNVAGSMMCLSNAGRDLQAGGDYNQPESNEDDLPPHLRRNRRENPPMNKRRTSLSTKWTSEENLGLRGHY
# [11] = molecular target: Large T antigen (Simian virus 40, UniProt P03070); type: functional, Betapolyomavirus macacae;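 note: Confirmatory-stage PubChem screen for compounds that inhibit SV40 T antigen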
# Chain of Large T antigen (P03070 whole entry, the tested form may be a part): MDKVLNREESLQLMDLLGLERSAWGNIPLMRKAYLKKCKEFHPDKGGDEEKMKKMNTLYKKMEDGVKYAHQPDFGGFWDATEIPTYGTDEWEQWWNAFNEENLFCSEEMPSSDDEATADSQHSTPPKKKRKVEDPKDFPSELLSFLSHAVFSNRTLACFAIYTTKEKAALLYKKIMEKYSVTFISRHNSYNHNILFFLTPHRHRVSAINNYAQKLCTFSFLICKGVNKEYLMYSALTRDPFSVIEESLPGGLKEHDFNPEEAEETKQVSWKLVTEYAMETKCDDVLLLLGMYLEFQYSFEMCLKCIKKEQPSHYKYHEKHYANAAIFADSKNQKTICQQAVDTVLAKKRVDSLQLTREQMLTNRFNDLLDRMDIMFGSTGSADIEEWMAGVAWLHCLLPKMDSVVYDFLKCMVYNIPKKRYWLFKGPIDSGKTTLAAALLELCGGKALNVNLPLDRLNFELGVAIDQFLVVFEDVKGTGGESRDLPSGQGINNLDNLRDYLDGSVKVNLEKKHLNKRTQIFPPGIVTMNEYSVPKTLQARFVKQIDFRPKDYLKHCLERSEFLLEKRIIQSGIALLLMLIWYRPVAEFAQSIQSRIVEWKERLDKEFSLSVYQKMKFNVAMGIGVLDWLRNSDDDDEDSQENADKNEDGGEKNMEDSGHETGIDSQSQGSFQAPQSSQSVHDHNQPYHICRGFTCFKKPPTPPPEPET
# [12] = molecular target: T5, RNA-binding protein pos-1 (Caenorhabditis elegans, UniProt G5EF15); test: inhibitors of POS-1/mex-3 RNA binding, dose response, biochemical, fluorescence polarization (AID 1964);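 note: purified POS-1 fused to maltose binding protein made in E. coli; potency of compounds blocking POS-1 binding to fluorescent RNA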
# T5 sequence (G5EF15 whole entry): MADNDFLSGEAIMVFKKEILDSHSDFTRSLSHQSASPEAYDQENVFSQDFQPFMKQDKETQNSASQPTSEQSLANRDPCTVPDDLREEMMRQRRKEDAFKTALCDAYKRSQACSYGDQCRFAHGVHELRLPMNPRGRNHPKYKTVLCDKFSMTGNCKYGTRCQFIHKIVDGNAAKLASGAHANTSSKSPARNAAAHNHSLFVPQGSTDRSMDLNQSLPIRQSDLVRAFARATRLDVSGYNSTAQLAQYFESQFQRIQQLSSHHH
# [13] = HEp-2 cell cytotoxicity, dose response, cytotoxicity control for RSV inhibitor project, HTS (AID 2410); type: functional; settings: human respiratory syncytial virus
# [14] = molecular target: T6, Estrogen receptor beta (Homo sapiens, UniProt Q92731);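 note: recombinant ER-beta bound to coactivator SRC1 peptide in presence of estradiol agonist; inhibitors block coactivator peptide binding and lower the FRET signal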
# T6 sequence (Q92731 whole entry): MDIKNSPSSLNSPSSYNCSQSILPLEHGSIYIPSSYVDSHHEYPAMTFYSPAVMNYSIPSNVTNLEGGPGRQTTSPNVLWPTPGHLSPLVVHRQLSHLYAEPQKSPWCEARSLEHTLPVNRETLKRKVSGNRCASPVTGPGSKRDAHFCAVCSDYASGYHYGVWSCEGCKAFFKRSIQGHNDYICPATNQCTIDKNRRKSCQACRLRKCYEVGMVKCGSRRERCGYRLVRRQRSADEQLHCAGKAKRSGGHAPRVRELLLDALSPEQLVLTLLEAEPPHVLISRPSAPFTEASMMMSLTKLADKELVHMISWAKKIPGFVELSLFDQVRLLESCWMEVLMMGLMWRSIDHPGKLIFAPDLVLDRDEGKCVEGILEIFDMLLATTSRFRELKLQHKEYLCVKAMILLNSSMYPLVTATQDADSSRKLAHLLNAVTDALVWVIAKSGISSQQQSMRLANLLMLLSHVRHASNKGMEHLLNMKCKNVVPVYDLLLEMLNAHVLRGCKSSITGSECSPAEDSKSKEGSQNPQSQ
# [15] = molecular target: T2, Estrogen receptor
# [16] = molecular target: T6, Estrogen receptor beta; test: ERβ–SRC-3 coactivator interaction inhibitors, confirmation, orthogonal assay, biochemical, ELISA, streptavidin-HRP readout (AID 1060)
# [17] = molecular target: T7, Histone-lysine N-methyltransferase NSD2 (Homo sapiens, UniProt O96028); type: biochemical
# T7 sequence (O96028 whole entry): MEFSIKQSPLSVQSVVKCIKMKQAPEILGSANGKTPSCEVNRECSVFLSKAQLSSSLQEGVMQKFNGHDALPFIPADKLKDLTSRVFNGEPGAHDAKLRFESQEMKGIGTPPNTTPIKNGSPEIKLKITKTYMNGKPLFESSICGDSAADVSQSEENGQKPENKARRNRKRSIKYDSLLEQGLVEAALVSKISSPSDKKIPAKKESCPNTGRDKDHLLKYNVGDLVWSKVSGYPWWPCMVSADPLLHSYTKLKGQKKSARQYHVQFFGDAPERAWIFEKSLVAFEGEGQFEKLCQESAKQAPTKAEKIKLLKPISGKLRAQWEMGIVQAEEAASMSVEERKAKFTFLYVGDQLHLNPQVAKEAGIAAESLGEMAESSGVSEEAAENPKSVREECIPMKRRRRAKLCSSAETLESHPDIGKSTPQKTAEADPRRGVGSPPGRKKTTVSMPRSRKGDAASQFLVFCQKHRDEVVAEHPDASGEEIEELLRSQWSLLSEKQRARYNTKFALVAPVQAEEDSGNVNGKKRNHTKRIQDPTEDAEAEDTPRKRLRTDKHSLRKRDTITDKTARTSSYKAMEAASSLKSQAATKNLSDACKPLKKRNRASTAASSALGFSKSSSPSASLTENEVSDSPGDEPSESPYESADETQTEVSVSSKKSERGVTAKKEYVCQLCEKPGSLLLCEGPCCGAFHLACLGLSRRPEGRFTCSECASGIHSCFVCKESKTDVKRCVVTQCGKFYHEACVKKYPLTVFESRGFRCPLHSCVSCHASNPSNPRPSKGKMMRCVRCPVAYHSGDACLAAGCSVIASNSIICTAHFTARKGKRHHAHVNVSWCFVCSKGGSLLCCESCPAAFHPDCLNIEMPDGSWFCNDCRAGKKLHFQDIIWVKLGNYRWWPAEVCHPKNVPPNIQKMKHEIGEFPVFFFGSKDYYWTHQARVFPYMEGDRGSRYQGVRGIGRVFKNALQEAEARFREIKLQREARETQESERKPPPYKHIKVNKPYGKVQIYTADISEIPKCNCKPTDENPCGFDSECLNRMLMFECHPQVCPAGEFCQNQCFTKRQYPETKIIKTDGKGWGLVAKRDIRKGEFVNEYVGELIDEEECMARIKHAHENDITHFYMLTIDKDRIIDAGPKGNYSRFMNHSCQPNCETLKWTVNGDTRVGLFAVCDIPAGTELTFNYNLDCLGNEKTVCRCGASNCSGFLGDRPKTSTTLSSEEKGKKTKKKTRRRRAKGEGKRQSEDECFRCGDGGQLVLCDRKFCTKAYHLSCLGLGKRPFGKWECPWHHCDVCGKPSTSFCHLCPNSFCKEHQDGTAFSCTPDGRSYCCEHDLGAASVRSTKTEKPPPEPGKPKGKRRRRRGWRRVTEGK
# [18] = molecular target: T8, Mannose-6-phosphate isomerase (Homo sapiens, UniProt P34949); test: human PMI inhibitors, high substrate, primary screen, biochemical, fluorescence intensity, high mannose 6-phosphate (AID 1220)
# T8 sequence (P34949 whole entry): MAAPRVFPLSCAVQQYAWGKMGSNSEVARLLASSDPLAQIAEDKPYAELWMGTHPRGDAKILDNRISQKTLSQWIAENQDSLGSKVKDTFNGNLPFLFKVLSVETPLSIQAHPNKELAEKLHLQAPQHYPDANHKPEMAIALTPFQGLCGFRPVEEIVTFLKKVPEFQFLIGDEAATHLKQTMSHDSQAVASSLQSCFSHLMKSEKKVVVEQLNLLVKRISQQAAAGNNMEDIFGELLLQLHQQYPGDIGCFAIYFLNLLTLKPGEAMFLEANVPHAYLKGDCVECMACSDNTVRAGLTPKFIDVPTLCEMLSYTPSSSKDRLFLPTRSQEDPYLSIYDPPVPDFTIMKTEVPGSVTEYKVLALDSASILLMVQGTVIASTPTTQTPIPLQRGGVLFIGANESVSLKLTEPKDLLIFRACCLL
# Chain of Ion channel NompC (Q7T1G6 whole entry): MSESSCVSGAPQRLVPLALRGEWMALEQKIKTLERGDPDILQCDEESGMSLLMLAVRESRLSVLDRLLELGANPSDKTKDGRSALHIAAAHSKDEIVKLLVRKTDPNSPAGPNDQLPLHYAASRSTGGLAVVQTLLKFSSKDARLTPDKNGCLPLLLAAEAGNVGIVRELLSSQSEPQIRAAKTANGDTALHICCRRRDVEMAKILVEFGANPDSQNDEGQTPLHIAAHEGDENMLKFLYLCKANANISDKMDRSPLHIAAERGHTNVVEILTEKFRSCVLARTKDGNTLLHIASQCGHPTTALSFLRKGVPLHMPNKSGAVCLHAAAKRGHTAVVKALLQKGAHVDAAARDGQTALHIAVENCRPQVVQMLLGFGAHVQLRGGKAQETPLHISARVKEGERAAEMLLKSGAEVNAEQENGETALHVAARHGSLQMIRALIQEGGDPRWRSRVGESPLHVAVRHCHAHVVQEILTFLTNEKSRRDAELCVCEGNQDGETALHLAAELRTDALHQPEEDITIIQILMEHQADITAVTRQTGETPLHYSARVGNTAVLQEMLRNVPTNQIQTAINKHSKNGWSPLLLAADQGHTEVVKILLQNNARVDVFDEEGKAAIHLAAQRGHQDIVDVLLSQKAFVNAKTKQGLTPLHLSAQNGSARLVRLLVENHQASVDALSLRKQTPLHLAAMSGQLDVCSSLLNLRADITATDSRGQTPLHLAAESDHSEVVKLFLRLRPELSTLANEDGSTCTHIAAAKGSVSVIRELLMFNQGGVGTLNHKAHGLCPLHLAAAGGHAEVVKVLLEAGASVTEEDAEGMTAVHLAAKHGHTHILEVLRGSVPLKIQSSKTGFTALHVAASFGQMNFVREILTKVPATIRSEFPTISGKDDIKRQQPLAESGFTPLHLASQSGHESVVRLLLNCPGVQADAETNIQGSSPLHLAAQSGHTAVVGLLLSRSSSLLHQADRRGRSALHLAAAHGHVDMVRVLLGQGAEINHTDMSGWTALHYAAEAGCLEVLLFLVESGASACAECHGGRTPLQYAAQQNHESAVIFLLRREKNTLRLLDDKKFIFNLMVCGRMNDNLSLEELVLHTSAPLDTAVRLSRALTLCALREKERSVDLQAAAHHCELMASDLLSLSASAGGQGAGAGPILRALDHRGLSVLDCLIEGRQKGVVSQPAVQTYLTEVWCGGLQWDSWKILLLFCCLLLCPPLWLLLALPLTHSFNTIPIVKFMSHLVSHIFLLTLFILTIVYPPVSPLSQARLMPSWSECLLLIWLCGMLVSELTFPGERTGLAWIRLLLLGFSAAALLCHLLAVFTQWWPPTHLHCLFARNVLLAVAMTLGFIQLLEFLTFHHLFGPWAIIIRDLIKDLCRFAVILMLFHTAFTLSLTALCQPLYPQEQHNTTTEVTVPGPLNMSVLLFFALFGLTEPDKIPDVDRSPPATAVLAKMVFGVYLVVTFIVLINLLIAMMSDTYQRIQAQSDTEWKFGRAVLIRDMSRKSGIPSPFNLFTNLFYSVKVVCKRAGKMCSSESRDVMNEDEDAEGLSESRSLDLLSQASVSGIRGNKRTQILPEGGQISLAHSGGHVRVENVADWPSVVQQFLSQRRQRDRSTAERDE
smiles,measurement,setting,value
COC(=O)C1(C(C[N+](=O)[O-])c2ccco2)C(=O)NCC1c1ccccc1 (centres undefined),EC50,[1],> 29.9 µM (not active)
same,EC50,[2],7.77 µM (active)
COc1cc(NC(=O)c2cc3c(=O)n(C)c4ccccc4c3n2C)cc(OC)c1OC,EC50,[3],12.9 µM (not active)
O=C(Nc1ccc(Cl)cc1)Nc1ccc(Oc2ccccc2)cc1,IC50,[4],> 17 µM (not active)
COc1ccc(S(=O)(=O)NN(C)c2ncc(C(F)(F)F)cc2Cl)cc1,EC50,[5],0.38 µM (not active)
O=C(Nc1cccc2c1[nH]c1ccccc12)C(F)(F)F,EC50,[6],31.8 µM (inactive)
same,IC50,[7],2.48 µM (active)
CC1(OC(=O)CCc2ccccc2)C(=O)C=C2C=C(c3ccc(C#N)cc3)N(Cc3ccco3)C=C2C1=O (centres undefined),EC50,[8],> 100 µM (active)
COc1ccccc1N1C(=O)NC(=O)/C(=C/c2ccc([N+](=O)[O-])s2)C1=O,IC50,[9],> 100 µM (active)
same,EC50,[10],23 µM (active)
same,IC50,[11],> 100 µM (active)
same,EC50,[12],44.1 µM (active)
Cc1ccc(S(=O)(=O)N2CCc3ccccc3C2CN2C(=O)c3ccccc3C2=O)cc1 (centres undefined),EC50,[1],> 29.9 µM (not active)
same,EC50,[2],> 29.9 µM (not active)
same,CC50,[13],45.1 µM (active)
O=C(NCc1ccco1)c1cc2c(s1)CSC2,IC50,[14],7.85 µM (active)
same,IC50,[15],9.41 µM (active)
same,IC50,[16],0.0368 µM (not active)
COc1ccccc1N=C(S)Nc1cccc2cnccc12,AC50,[17],10.1 µM (active)
same,IC50,[18],> 50 µM (not active)
C1CCC(c2nn3c(-c4[nH]nc5c4CCC5)nnc3s2)CC1,IC50,[14],10.2 µM (active)
same,IC50,[15],> 50 µM (not active)
same,IC50,[16],> 50 µM (not active)
CC(=O)Nc1ccccc1OC(=O)c1sc2ccccc2c1Cl,IC50,[4],> 17 µM (not active)
